In patent US9102678B2, “Compounds and methods for inhibiting mitotic progression” (Millennium Pharmaceuticals, Inc., priority 2004, dated 2015):

target: T1, recombinant murine Aurora A enzyme (Mus musculus, UniProt P97477); experiment: Aurora A DELFIA Kinase Assay; type: biochemical; settings: mouse Aurora A, 250 μM ATP; threshold less than or equal to 100 nM; read-out: IC50
T1 construct: hexahistidine (His6) (N); made in house; host or cells: insect cells, baculovirus (Bac-to-Bac, Invitrogen)
Source text: Recombinant mouse Aurora A with an amino-terminus hexahistidine tag (His-Aurora A) was expressed using a standard baculovirus vector and insect cell expression system (Bac-to-Bac®, Invitrogen).
Soluble, recombinant mouse Aurora A was purified from insect cells using Ni-NTA agarose (Qiagen) as described by the manufacturer and further purified over an S75 size exclusion column (Amersham Pharmacia Biotech).
Aurora A DELFIA® Kinase Assay
The enzymatic reaction mixture, with and without Aurora inhibitors, was incubated for 15 minutes at room temperature before termination with 100 μL of stop buffer (1% BSA, 0.05% Surfact-AMPS-20, and 100 mM EDTA). A total of 100 μL of the enzyme reaction mixture was transferred to wells of a Neutravidin-coated 96-well plate (Pierce) and incubated at room temperature for 30 minutes. The wells were washed with wash buffer (25 mM Tris, 150 mM sodium chloride, and 0.1% Tween 20) and incubated for 1 hour with 100 μL of antibody reaction mixture containing 1% BSA, 0.05% Surfact-AMPS-20, anti-phospho-PKA rabbit polyclonal antibody (1:2000, New England Biolabs), and europium labeled anti-rabbit IgG (1:2000, Perkin Elmer). The wells were washed and then the bound europium was liberated using 100 μL of Enhancement Solution (Perkin Elmer). Quantification of europium was done using a Wallac™ EnVision (Perkin Elmer).

T1 sequence (P97477 whole entry): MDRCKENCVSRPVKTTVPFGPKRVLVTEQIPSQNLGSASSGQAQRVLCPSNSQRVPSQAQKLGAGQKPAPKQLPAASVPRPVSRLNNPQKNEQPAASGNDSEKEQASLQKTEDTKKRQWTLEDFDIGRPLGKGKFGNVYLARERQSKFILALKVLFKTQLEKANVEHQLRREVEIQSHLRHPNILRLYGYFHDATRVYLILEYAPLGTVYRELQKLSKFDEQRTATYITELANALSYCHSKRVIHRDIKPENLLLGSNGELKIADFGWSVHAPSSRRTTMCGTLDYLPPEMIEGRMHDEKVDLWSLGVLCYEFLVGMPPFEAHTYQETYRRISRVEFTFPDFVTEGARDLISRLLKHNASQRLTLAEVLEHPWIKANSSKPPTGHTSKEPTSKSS

IC50, ≤ 100 nM:
NC1CCN(C(=O)c2ccc(Nc3ncc4c(n3)-c3ccc(Cl)cc3C(c3c(F)cccc3F)=NC4)cc2)C1 (centres unmarked) [Compound I-196, (3-Amino-pyrrolidin-1-yl)-{4-[9-chloro-7-(2,6-difluoro-phenyl)-5H-benzo[c]pyrimido[4,5-e]azepin-2-ylamino]-phenyl}-methanone]
CN1CCC(N(C)C(=O)c2ccc(Nc3ncc4c(n3)-c3ccc(Cl)cc3C(c3ccccc3F)=NC4)cc2)C1 (centres unmarked) [Compound I-99, 4-[9-Chloro-7-(2-fluoro-phenyl)-5H-benzo[c]pyrimido[4,5-e]azepin-2-ylamino]-N-methyl-N-(1-methyl-pyrrolidin-3-yl)-benzamide]
CN(C)CC#Cc1cccc(Nc2ncc3c(n2)-c2ccc(Cl)cc2C(c2c(F)cccc2F)=NC3)c1 [Compound I-343, 9-chloro-7-(2,6-difluorophenyl)-N-{3-[3-(dimethylamino)prop-1-yn-1-yl]phenyl}-5H-pyrimido[5,4-d][2]benzazepin-2-amine]
COc1cccc(Nc2ncc3c(n2)-c2ccc(C(=O)O)cc2C(c2c(F)cccc2F)=NC3)c1 [Compound I-353, 7-(2,6-difluorophenyl)-2-[(3-methoxyphenyl)amino]-5H-pyrimido[5,4-d][2]benzazepine-9-carboxylic acid]
CN(C)C1CCN(C(=N)c2ccc(Nc3ncc4c(n3)-c3ccc(Cl)cc3C(c3c(F)cccc3F)=NC4)cc2)CC1 [Compound I-244, 9-chloro-7-(2,6-difluorophenyl)-N-{4-[[4-(dimethylamino)piperidin-1-yl](imino)methyl]phenyl}-5H-pyrimido[5,4-d][2]benzazepin-2-amine]
CNCCN(C)C(=O)c1ccc(Nc2ncc3c(n2)-c2ccc(Cl)cc2C(c2c(F)cccc2OC)=NC3)cc1 [Compound I-254, 4-{[9-chloro-7-(2-fluoro-6-methoxyphenyl)-5H-pyrimido[5,4-d][2]benzazepin-2-yl]amino}-N-methyl-N-[2-(methylamino)ethyl]benzamide]
O=C(O)c1coc(Nc2ncc3c(n2)-c2ccc(Cl)cc2C(c2c(F)cccc2F)=NC3)n1 [Compound I-368, 2-{[9-chloro-7-(2,6-difluorophenyl)-5H-pyrimido[5,4-d][2]benzazepin-2-yl]amino}-1,3-oxazole-4-carboxylic acid]
CNCCN(C)C(=O)c1ccc(Nc2ncc3c(n2)-c2ccc(Cl)cc2C(c2ccccc2F)=NC3)cc1 [Compound I-3, 4-[9-Chloro-7-(2-fluoro-phenyl)-5H-benzo[c]pyrimido[4,5-e]azepin-2-ylamino]-N-methyl-N-(2-methylamino-ethyl)-benzamide]
COc1cccc(F)c1C1=NCc2cnc(Nc3cccc(C(=O)N(C)CCCN(C)C)c3)nc2-c2ccc(Cl)cc21 [Compound I-226, 3-{[9-chloro-7-(2-fluoro-6-methoxyphenyl)-5H-pyrimido[5,4-d][2]benzazepin-2-yl]amino}-N-[3-(dimethylamino)propyl]-N-methylbenzamide]
CN1CCN(CCCNC(=O)c2ccc(Nc3ncc4c(n3)-c3ccc(Cl)cc3C(c3ccccc3F)=NC4)cc2)CC1 [Compound I-19, 4-[9-Chloro-7-(2-fluoro-phenyl)-5H-benzo[c]pyrimido[4,5-e]azepin-2-ylamino]-N-[3-(4-methyl-piperazin-1-yl)-propyl]-benzamide]
NCCCc1cccc(Nc2ncc3c(n2)-c2ccc(Cl)cc2C(c2c(F)cccc2F)=NC3)c1 [Compound I-373, N-[3-(3-aminopropyl)phenyl]-9-chloro-7-(2,6-difluorophenyl)-5H-pyrimido[5,4-d][2]benzazepin-2-amine]
NC1CN(C(=O)c2ccc(Nc3ncc4c(n3)-c3ccc(Cl)cc3C(c3ccccc3C(F)(F)F)=NC4)cc2)C1 [Compound I-296, N-{4-[(3-aminoazetidin-1-yl)carbonyl]phenyl}-9-chloro-7-[2-(trifluoromethyl)phenyl]-5H-pyrimido[5,4-d][2]benzazepin-2-amine]
CNC1CCN(C(=N)c2ccc(Nc3ncc4c(n3)-c3ccc(Cl)cc3C(c3c(F)cccc3F)=NC4)cc2)C1 (centres unmarked) [Compound I-268, 9-chloro-7-(2,6-difluorophenyl)-N-(4-{imino[3-(methylamino)pyrrolidin-1-yl]methyl}phenyl)-5H-pyrimido[5,4-d][2]benzazepin-2-amine]
NC1CCN(C(=O)c2ccc(Nc3ncc4c(n3)-c3ccc(Cl)cc3C(c3ncccc3F)=NC4)cc2)C1 (centres unmarked) [Compound I-305]
O=C(c1ccc(Nc2ncc3c(n2)-c2ccc(Cl)cc2C(c2ccccc2F)=NC3)cc1)N(CCO)CCO [Compound I-27, 4-[9-Chloro-7-(2-fluoro-phenyl)-5H-benzo[c]pyrimido[4,5-e]azepin-2-ylamino]-N,N-bis-(2-hydroxy-ethyl)-benzamide]
CN(CCCN)C(=O)c1ccc(Nc2ncc3c(n2)-c2ccc(Cl)cc2C(c2c(F)cccc2F)=NC3)cc1 [Compound I-257, N-(3-aminopropyl)-4-{[9-chloro-7-(2,6-difluorophenyl)-5H-pyrimido[5,4-d][2]benzazepin-2-yl]amino}-N-methylbenzamide]
O=C(O)c1ccc(Nc2ncc3c(n2)-c2ccc(Cl)cc2C(c2ccccc2Cl)=NC3)cc1 [Compound I-53, 4-[9-Chloro-7-(2-chloro-phenyl)-5H-benzo[c]pyrimido[4,5-e]azepin-2-ylamino]-benzoic acid]
C[C@@H]1CN(C(=O)c2ccc(Nc3ncc4c(n3)-c3ccc(Cl)cc3C(c3c(F)cccc3F)=NC4)cc2)CCN1 [Compound I-194, {4-[9-Chloro-7-(2,6-difluoro-phenyl)-5H-benzo[c]pyrimido[4,5-e]azepin-2-ylamino]-phenyl}-(3(R)-methyl-piperazin-1-yl)-methanone]
O=C(c1ccc(Nc2ncc3c(n2)-c2ccc(Cl)cc2C(c2ccccc2F)=NC3)cc1)N1CCOCC1 [Compound I-26, {4-[9-Chloro-7-(2-fluoro-phenyl)-5H-benzo[c]pyrimido[4,5-e]azepin-2-ylamino]-phenyl}-morpholin-4-yl-methanone]
COc1cccc(F)c1C1=NCc2cnc(Nc3ccc(C(=O)N4CCNC(C)C4)cc3)nc2-c2ccc(Cl)cc21 (centres unmarked) [Compound I-232]
CN(CCN)C(=O)c1ccc(Nc2ncc3c(n2)-c2ccc(Cl)cc2C(c2c(F)cccc2F)=NC3)cc1 [Compound I-252, N-(2-aminoethyl)-4-{[9-chloro-7-(2,6-difluorophenyl)-5H-pyrimido[5,4-d][2]benzazepin-2-yl]amino}-N-methylbenzamide]
O=C(c1ccc(Nc2ncc3c(n2)-c2ccc(Cl)cc2C(c2c(F)cccc2F)=NC3)cc1)N1CCNCC1 [Compound I-195, {4-[9-Chloro-7-(2,6-difluoro-phenyl)-5H-benzo[c]pyrimido[4,5-e]azepin-2-ylamino]-phenyl}-piperazin-1-yl-methanone]
N=C(NC(=O)c1ccc(Nc2ncc3c(n2)-c2ccc(Cl)cc2C(c2c(F)cccc2F)=NC3)cc1)N1CCNCC1 [Compound I-224, 4-{[9-chloro-7-(2,6-difluorophenyl)-5H-pyrimido[5,4-d][2]benzazepin-2-yl]amino}-N-[imino(piperazin-1-yl)methyl]benzamide]
CN(C)CCN(C)C(=O)c1ccc(Nc2ncc3c(n2)-c2ccc(Cl)cc2C(c2ccccc2F)=NC3)cc1 [Compound I-5, 4-[9-Chloro-7-(2-fluoro-phenyl)-5H-benzo[c]pyrimido[4,5-e]azepin-2-ylamino]-N-(2-dimethylamino-ethyl)-N-methyl-benzamide]
COc1cccc(F)c1C1=NCc2cnc(Nc3ccc(C(=O)N(C)CCN)cc3)nc2-c2ccc(Cl)cc21 [Compound I-265, N-(2-aminoethyl)-4-{[9-chloro-7-(2-fluoro-6-methoxyphenyl)-5H-pyrimido[5,4-d][2]benzazepin-2-yl]amino}-N-methylbenzamide]
CC1CN(C(=O)c2coc(Nc3ncc4c(n3)-c3ccc(Cl)cc3C(c3c(F)cccc3F)=NC4)n2)CC(C)N1 (centres unmarked) [Compound I-374, 9-chloro-7-(2,6-difluorophenyl)-N-[4-[(3,5-dimethylpiperazin-1-yl)carbonyl]-1,3-oxazol-2-yl]-5H-pyrimido[5,4-d][2]benzazepin-2-amine]
COC(=O)C1CN(C(=O)c2ccc(Nc3ncc4c(n3)-c3ccc(Cl)cc3C(c3c(F)cccc3F)=NC4)cc2)CCN1 (centres unmarked) [Compound I-248, methyl 4-(4-{[9-chloro-7-(2,6-difluorophenyl)-5H-pyrimido[5,4-d][2]benzazepin-2-yl]amino}benzoyl)piperazine-2-carboxylate]
COc1cccc(F)c1C1=NCc2cnc(Nc3ccc(C(=O)N(C)CCCN)cc3)nc2-c2ccc(Cl)cc21 [Compound I-264, N-(3-aminopropyl)-4-{[9-chloro-7-(2-fluoro-6-methoxyphenyl)-5H-pyrimido[5,4-d][2]benzazepin-2-yl]amino}-N-methylbenzamide]
COc1cccc(F)c1C1=NCc2cnc(Nc3ccc(C(=O)N4CCC(N(C)C)C4)cc3)nc2-c2ccc(Cl)cc21 (centres unmarked) [Compound I-178, 9-Chloro-N-(4-{[3-(dimethylamino)pyrrolidin-1-yl]carbonyl}phenyl)-7-(2-fluoro-6-methoxyphenyl)-5H-pyrimido[5,4-d][2]benzazepin-2-amine]
